Source: US20080096799A1, “COMPOUNDS FOR AND METHODS OF TREATING INSULIN RESISTANCE AND INFLAMMATION” (FORBES MEDI-TECH (RESEARCH), INC., priority 2006, published 2008)

Key:
SPT [1] = target: T1, SPT (Homo sapiens, UniProt O15269+O15270); assay: Serine palmitoyltransferase activity, Assay C ([3H]serine incorporation into lipids, cell homogenates); assay type: biochemical; settings: [3H]serine radioactivity incorporated into lipids, 37° C. 20 min, at the doses indicated
T1 construct: endogenous in cells; host or cells: unnamed cultured cells (Assay B, which Assay C modifies, offers 'CHO cells or a human cell line')
T1 sequence (O15269 1-473): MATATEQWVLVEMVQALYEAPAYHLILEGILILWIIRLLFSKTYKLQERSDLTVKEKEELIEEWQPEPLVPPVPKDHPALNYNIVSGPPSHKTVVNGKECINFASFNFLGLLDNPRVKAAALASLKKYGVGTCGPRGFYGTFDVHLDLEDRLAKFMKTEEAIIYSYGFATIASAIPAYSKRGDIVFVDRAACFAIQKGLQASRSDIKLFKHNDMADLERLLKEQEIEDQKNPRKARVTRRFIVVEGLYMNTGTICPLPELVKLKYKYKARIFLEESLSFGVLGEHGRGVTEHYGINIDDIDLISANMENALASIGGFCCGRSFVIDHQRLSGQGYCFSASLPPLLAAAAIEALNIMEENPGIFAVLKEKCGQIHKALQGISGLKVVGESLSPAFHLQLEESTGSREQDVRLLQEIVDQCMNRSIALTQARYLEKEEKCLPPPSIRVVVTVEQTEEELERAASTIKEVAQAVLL
T1 sequence (O15270 1-562): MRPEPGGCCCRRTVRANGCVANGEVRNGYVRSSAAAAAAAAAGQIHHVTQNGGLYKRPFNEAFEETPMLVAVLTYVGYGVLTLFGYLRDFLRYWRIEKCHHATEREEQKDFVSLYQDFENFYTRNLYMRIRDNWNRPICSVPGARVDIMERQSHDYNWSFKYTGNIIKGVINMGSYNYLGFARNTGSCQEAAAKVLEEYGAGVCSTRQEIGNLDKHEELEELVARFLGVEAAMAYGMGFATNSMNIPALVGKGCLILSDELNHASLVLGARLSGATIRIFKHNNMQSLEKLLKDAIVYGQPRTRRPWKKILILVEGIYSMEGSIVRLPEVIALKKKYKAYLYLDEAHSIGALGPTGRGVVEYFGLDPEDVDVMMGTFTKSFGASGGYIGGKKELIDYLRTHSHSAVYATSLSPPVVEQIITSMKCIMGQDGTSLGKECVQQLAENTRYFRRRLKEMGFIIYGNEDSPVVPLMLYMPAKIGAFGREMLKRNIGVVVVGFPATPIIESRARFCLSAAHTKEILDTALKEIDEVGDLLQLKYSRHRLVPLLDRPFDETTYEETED
T1 sequence (Q969W0 1-71 partner): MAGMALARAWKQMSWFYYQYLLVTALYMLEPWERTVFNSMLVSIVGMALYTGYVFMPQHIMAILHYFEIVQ
Experimental: An alternative assay for evaluating inhibition of SPT, the enzyme present in commonly cultured cells, is performed with CHO cells or a human cell line. Cells are washed three times with ice-cold phosphate-buffered saline (PBS). A total of 0.5 mL of lysis buffer [50 mM Hepes (pH 8.0) containing 5 mM ethylenediaminetetraacetic acid (EDTA) and 5 mM dithiothreitol (DTT)] is added to each dish. The cells are scraped using a rubber policeman, and are then transferred to a test tube on ice. The cell suspension is sonicated three times for 5 s at 1-2 min intervals on ice. Protein concentrations in cell homogenates are measured using a Bradford protein assay kit (Bio-Rad). […] The radioactivity is measured with a LS6000TA liquid scintillation counter (Beckman). Nonspecific conversion of [^3H] serine to chloroform-soluble species is determined by performing the assay in the absence of palmitoyl CoA. […]
An alternative assay using a non-chlorinated solvent modification of the Blye and Dyer lipid extraction method reported in Smedes (Smedes, F. (1999) Analyst 124, 1711-18) is employed to evaluate exemplary compounds. […] An accurately measured portion of the organic layer (4.0 ml) is added to a scintillation vial with 1 ml of water. […] The amount of [^3H] serine radioactivity incorporated into lipids is quantified in a scintillation counter. […]

SPT [2] = settings: literature report, immunosuppressive assay for FTY720-like activity; cited from earlier work
Rat pancreatic islets = assay: Protection of islets by an SPT inhibitor (fatty acid medium, propidium iodide flow cytometry); assay type: cell-based; settings: 3 days
Experimental: Islet protection by an exemplary compound is evaluated in an assay according to Eitel, K, et al. Biochem. Biophys. Res. Commun. 299: 853-6 (2002), and results obtained in this assay are reported below in Table 4. Rat pancreatic islets are cultured with control medium (RPMI 1640 supplemented with 10% fetal bovine serum, antibiotics and made […]) or in medium supplemented with 1 millimolar sodium palmitate (Fatty Acid Medium) during a period of 3 days. The culture medium is changed after 2 days to an identical composition culture medium with fresh inhibitor in the appropriate wells. Cells are stained with propidium iodide (PI), washed and propidium staining of cells (as a measure of cellular DNA content) is assessed by flow cytometry. The percentage of cells having less than the normal amount of PI staining is considered to be apoptotic cells (Eitel, K, et al. (2002)).

[3] = test system: diabetic Zucker fatty rat model; settings: inhibition of SPT; cited from earlier work

Row | SMILES | inhibition of SPT (SPT [1]) | activity against SPT (SPT [2]) | further results
1 | CCCCCCC(=O)CCCCCC/C=C/C[C@@H](O)[C@H](O)[C@@](N)(CO)C(=O)O [ISP-1, myriocin] | potent but non-selective inhibition | – | –
2 | CCCCCCCCc1ccc(CCC(N)(CO)CO)cc1 [FTY720] | – | do not inhibit SPT | –
3 | CCCCCCCOc1ccc(CCC(O)C(O)C(N)(CC(N)=O)C(=O)O)cc1 (stereo not shown) [Compound 12] | moderate activity | – | protection of cells from the fatty acid treatment (apoptotic cells by PI staining) (Rat pancreatic islets; 1 millimolar sodium palmitate): fully protect; benefit in comparison to treatment with the control medium (Rat pancreatic islets; PI staining): imparts a benefit
4 | N[C@@H]1CON=C1O [cycloserine] | – | – | beta cell protective effect [3]: ≈ 50%
5 | CCCCCCCCc1ccc(CCC(N)(CO)C(=O)O)cc1 (stereo not shown) [compound 2] | – | did not exhibit activity | –
